{
  "source": "patent US10350244B2",
  "about": "“Pharmaceutical composition for the treatment of diseases in which LPS- and/or apoptosis regulation is disturbed” (priority 2013, dated 2019)",
  "assay_type_in_all_cases": "cell-based, human",
  "key": {"[1]": {"system": "monocytes from the blood of patients with CRC", "experiment": "Gene expression in MNC/monocytes from blood of CRC patients (RT-qPCR)", "conditions": "monocytes from blood of CRC patients UICC I to IV, 12-hour incubation, synergism in UICC I-III, FIG. 5", "method": "(§1) After collection, EDTA tubes were left to stand at room temperature (RT) for 60 min. Thereafter, serum was removed, divided into portions (1 ml/tube) and stored in −80° C. The blood was centrifuged at 311 g for 10 min. Thereafter, 1 part whole blood+5 parts lysis buffer were mixed, left to stand at RT for 15 min and then centrifuged at 311 g for 10 min. The supernatant was discarded and the pellet was washed with RPMI 1640 medium (repeated 3×). The cells were then counted and frozen at −170° C. in nitrogen at 5×10^6/ml (freezing medium: RPMI 1640 medium containing 5% DMSO, dimethyl sulfoxide=cryopreservation). In addition, the immune status was measured from one tube (FACS analysis, see below).\nRNA was extracted from MNCs and homogenized tumor tissue using the RNA Extraction Kit (Qiagen, Hilden, Germany), washed in DEPC 75% ethanol solution and then stored at −70° C. until it was processed further. The amount of RNA was determined by measuring absorption at 260 nm. The 260:280 ratio was determined within the 1.8-2.0 range; it was thus possible to prevent a contamination of the RNA by proteins. […]\nThe ‘real-time reverse transcription polymerase chain reaction’ method (real-time RT-PCR for short) is used for determining the expression of various genes. Said method allows the quantification of the expression of a gene in question in relation to the control genes. […]"}, "MNC [2]": {"system": "MNC", "experiment": "IGF-1 protein determination (ELISA) in MNC incubations", "source_text": "(§2) Peripheral blood mononuclear cells (PBMC, i.e., mononuclear cells (MNC)). This refers to mononuclear blood cells which have a round cell nucleus. These are, for example, lymphocytes and monocytes. Said cells play an important role in the immune system in controlling infections. PBMC or MNC are frequently employed in diagnostics as an indicator for infections which are present, as a factor for prognosing the course of an HIV infection and in clinical research. From the blood and sera collection of the tumor tissue bank and the tumor cells of an individual tumor patient that were likewise stored in said bank, they were, after passing through a specific thawing/revitalization procedure, examined for their protein and gene expression, apoptosis behavior and their released messenger substances (cytokine profiles) under the influence of the colostrum preparation Lactobin® N, vitamin D3 and also the combination in a specifically selected repertoire of methods.\nThe examinations were carried out in order to detect the cytokine insulin-like growth factor 1 (IGF-1) present in the samples. To this end, use was made of enzyme-linked immunosorbent assay (ELISA) sets (from Biosource International, California, USA) in accordance with the protocol instructions from the manufacturer. 50 μl of standard sample, control and the samples were pipetted per well into 96-well plates coated with anti-IGF-1. Thereafter, 50 μl of biotin conjugate (second antibody against IGF-1) were added. Subsequently, the plates were incubated at room temperature for 90 min, washed four times, and 100 μl of streptavidin-HRP working solution were pipetted into the wells and the plate was incubated at room temperature for 45 min. Thereafter, the plates were again washed four times, 100 μl of stabilized chromogen were added and incubated at room temperature for 30 min. Lastly, 100 μl of stop solution were pipetted. The results were read off on the ELISA reader at 450 nm (Dynatech Laboratories, Sullyfield, USA).\nTo prepare a preparation according to the invention, the above-described colostrum powder (preferably Lactobin N) was admixed with an appropriate amount of the vitamin D3-containing powder, achieving the inventive concentration of vitamin D3. A mixing ratio used according to the invention was 0.2 mg of the vitamin D3-containing powder per gram of colostrum powder (0.2 mg/g). This yielded 0.5 μg of vitamin D3/g of ready-made preparation for the samples. A recommended daily dose is 10 g of ready-made preparation, i.e., 5 μg of vitamin D3. […] Similarly, only the vitamin D3 preparation was used when the samples were treated only with vitamin D3 (e.g., “Vit. D3” in Table 1)."}, "MNC [3]": {"system": "MNC", "experiment": "Cytokine production by MNC after incubation (Luminex immunobead multiplex assay)", "source_text": "as §2, §1\nThe cryotube to be thawed was removed from the nitrogen and immediately transferred to a 37° C. water bath. Once the cells had detached from the inner wall of the cryotube (1-1.5 min), they were transferred to a sterile 50 ml Falcon tube containing 40 ml of cold medium. After a 5-minute centrifugation at 400 g, the medium was removed, the cell pellet was resuspended in 6 ml of warmed-up medium and the cells were counted. […]\nInterleukin (IL)-12 and proinflammatory factors such as […], IL-6, IFN-γ, TNF-α and anti-inflammatory factors such as IL-10 and IL-13 in the serum samples were measured in duplicate using an immunobead-based multiplex assay. The assays were carried out on a Bio-Plex system (Biosource).\nThe microspheres coated with mixtures of corresponding capture antibodies and the labeled detection antibodies were purchased from Biosource (Camarillo, […]). The reagents had already been tested and qualified by the manufacturer to rule out a cross-reactivity of the antibody-coated microspheres.\nThe Luminex measurements were carried out in order to determine further expressed MNC cytokines. 25 μl of antibody-coated microspheres were added to 96-well plates [mixture of the cytokines GM-CSF, IFN-γ, IL-1β, IL-2, IL-4, IL-5, IL-6, IL-8, IL-10 and TNF-α; ready-prepared kit, from Biosource International, California, USA]. After washing had been carried out twice, 50 μl of incubation buffer, 50 μl of ready-prepared sample dilution and 50 μl of sample were pipetted into each well. The plates were incubated in the dark on a shaker for 2 hours at room temperature and again washed twice. Thereafter, 100 μl of the biotinylated detection antibody were added to each well, incubated in the dark on a shaker for a further hour at room temperature, and again washed twice. 100 μl of SAV-RPE (R-phycoerythrin fluorescent dye, from Biosource International) were pipetted into each well, the plates were again shaken in the dark for 30 min at room temperature and washed three times. Each assay preparation was adjusted with 100 μl of wash buffer per well as the final volume and the plates were measured in the Luminex reader (Luminex 100, from Luminex Applied Systems, Sheffield, UK). […]"}, "[4]": {"conditions": "MNC of CRC patients UICC I (n = 6)"}, "[5]": {"conditions": "MNC of CRC patients UICC II (n = 6)"}, "[6]": {"conditions": "MNC of CRC patients UICC III (n = 6)"}, "[7]": {"conditions": "MNC of CRC patients UICC IV (n = 6)"}},
  "data": [
    {"smiles": "C=C1CC[C@H](O)C/C1=C/C=C1\\CCC[C@]2(C)[C@@H]([C@H](C)CCCC(C)C)CC[C@@H]12", "note": "[Vit D3, cholecalciferol]", "values": [
      {"measurement": "expression of the IGF-1 gene in MNC", "setting": "[1]", "value": "drop in the gene expression profile"},
      {"measurement": "IGF-1", "setting": "MNC [2]; [4]", "value": 148.6, "unit": "ng/mL"},
      {"measurement": "IGF-1", "setting": "MNC [2]; [5]", "value": 213.4, "unit": "ng/mL"},
      {"measurement": "IGF-1", "setting": "MNC [2]; [6]", "value": 299.1, "unit": "ng/mL"},
      {"measurement": "IGF-1", "setting": "MNC [2]; [7]", "value": 896.4, "unit": "ng/mL"},
      {"measurement": "IGF-1", "setting": "MNC [2]; MNC of Control (n = 6)", "value": 90.3, "unit": "ng/mL"},
      {"measurement": "IFN-γ", "setting": "MNC [3]; [4]", "value": 58.5, "unit": "pg/mL"},
      {"measurement": "IL-1β", "setting": "MNC [3]; [4]", "value": 42.5, "unit": "pg/mL"},
      {"measurement": "IL-6", "setting": "MNC [3]; [4]", "value": 98.7, "unit": "pg/mL"},
      {"measurement": "IL-10", "setting": "MNC [3]; [4]", "value": 18.3, "unit": "pg/mL"},
      {"measurement": "IL-12", "setting": "MNC [3]; [4]", "value": 74.9, "unit": "pg/mL"},
      {"measurement": "IL-13", "setting": "MNC [3]; [4]", "value": 30.1, "unit": "pg/mL"},
      {"measurement": "TNF-α", "setting": "MNC [3]; [4]", "value": 83.6, "unit": "pg/mL"},
      {"measurement": "IFN-γ", "setting": "MNC [3]; [5]", "value": 77.3, "unit": "pg/mL"},
      {"measurement": "IL-1β", "setting": "MNC [3]; [5]", "value": 34.8, "unit": "pg/mL"},
      {"measurement": "IL-6", "setting": "MNC [3]; [5]", "value": 102.8, "unit": "pg/mL"},
      {"measurement": "IL-10", "setting": "MNC [3]; [5]", "value": 18.1, "unit": "pg/mL"},
      {"measurement": "IL-12", "setting": "MNC [3]; [5]", "value": 80.1, "unit": "pg/mL"},
      {"measurement": "IL-13", "setting": "MNC [3]; [5]", "value": 27.9, "unit": "pg/mL"},
      {"measurement": "TNF-α", "setting": "MNC [3]; [5]", "value": 169.1, "unit": "pg/mL"},
      {"measurement": "IFN-γ", "setting": "MNC [3]; [6]", "value": 215.9, "unit": "pg/mL"},
      {"measurement": "IL-1β", "setting": "MNC [3]; [6]", "value": 169.4, "unit": "pg/mL"},
      {"measurement": "IL-6", "setting": "MNC [3]; [6]", "value": 91.7, "unit": "pg/mL"},
      {"measurement": "IL-10", "setting": "MNC [3]; [6]", "value": 17.9, "unit": "pg/mL"},
      {"measurement": "IL-12", "setting": "MNC [3]; [6]", "value": 214.7, "unit": "pg/mL"},
      {"measurement": "IL-13", "setting": "MNC [3]; [6]", "value": 26.1, "unit": "pg/mL"},
      {"measurement": "TNF-α", "setting": "MNC [3]; [6]", "value": 331.5, "unit": "pg/mL"},
      {"measurement": "IFN-γ", "setting": "MNC [3]; [7]", "value": 292.5, "unit": "pg/mL"},
      {"measurement": "IL-1β", "setting": "MNC [3]; [7]", "value": 369.9, "unit": "pg/mL"},
      {"measurement": "IL-6", "setting": "MNC [3]; [7]", "value": 213.1, "unit": "pg/mL"},
      {"measurement": "IL-10", "setting": "MNC [3]; [7]", "value": 7.9, "unit": "pg/mL"},
      {"measurement": "IL-12", "setting": "MNC [3]; [7]", "value": 499.9, "unit": "pg/mL"},
      {"measurement": "IL-13", "setting": "MNC [3]; [7]", "value": 9.1, "unit": "pg/mL"},
      {"measurement": "TNF-α", "setting": "MNC [3]; [7]", "value": 413.1, "unit": "pg/mL"},
      {"measurement": "IFN-γ", "setting": "MNC [3]; MNC of Control (n = 6)", "value": 12.8, "unit": "pg/mL"},
      {"measurement": "IL-1β", "setting": "MNC [3]; MNC of Control (n = 6)", "value": 4.8, "unit": "pg/mL"},
      {"measurement": "IL-6", "setting": "MNC [3]; MNC of Control (n = 6)", "value": 3.3, "unit": "pg/mL"},
      {"measurement": "IL-10", "setting": "MNC [3]; MNC of Control (n = 6)", "value": 27.9, "unit": "pg/mL"},
      {"measurement": "IL-12", "setting": "MNC [3]; MNC of Control (n = 6)", "value": 47.7, "unit": "pg/mL"},
      {"measurement": "IL-13", "setting": "MNC [3]; MNC of Control (n = 6)", "value": 43.6, "unit": "pg/mL"},
      {"measurement": "TNF-α", "setting": "MNC [3]; MNC of Control (n = 6)", "value": 62.6, "unit": "pg/mL"}
    ]}
  ]
}
